In patent US20220133884A1, “COMPOUNDS USEFUL AS ADJUVANTS” (MILLENNIUM PHARMACEUTICALS, INC., priority 2019, published 2022):

B1: OVA: chicken ovalbumin protein antigen, EndoFit Ovalbumin, InvivoGen (protein, UniProt P01012 2-386, looked up)
Ovalbumin: GSIGAASMEFCFDVFKELKVHHANENIFYCPIAIMSALAMVYLGAKDSTRTQINKVVRFDKLPGFGDSIEAQCGTSVNVHSSLRDILNQITKPNDVYSFSLASRLYAEERYPILPEYLQCVKELYRGGLEPINFQTAADQARELINSWVESQTNGIIRNVLQPSSVDSQTAMVLVNAIVFKGLWEKAFKDEDTQAMPFRVTEQESKPVQMMYQIGLFRVASMASEKMKILELPFASGTMSMLVLLPDEVSGLEQLESIINFEKLTEWTSSNVMEERKIKVYLPRMKMEEKYNLTSVLMAMGITDVFSSSANLSGISSAESLKISQAVHAAHAEINEAGREVVGSAEAGVDAASVSEEFRADHPFLFCIKHIATNAVLFFGRCVSP

How the values were obtained:
[1] = test system: T cells and NK cells; assay: Study 1: early lymphocyte activation marker CD69 on T cells and NK cells in lymph nodes (flow cytometry); assay type: in vivo, Balb/c mice; conditions: ~18 hours post subcutaneous injection, Compound I-263a 7.5 mg/kg, CpG 2.5 mg/kg
Description: (§1) Unless otherwise stated, immune cell profiling was performed using flow cytometry on a BD (Beckton Dickinson) LSRII Fortessa.
(§2) The goal of this study was to investigate the in vivo effects of Compound I-263a alone or in combination with a TLR9 agonist (CpG) with respect to the recruitment and activation of innate immune cells at regional draining lymph nodes (LNs). On day 0 in the evening, eight to ten week old female Balb/c mice (Jackson Labs, Bar Harbor, Me.) were injected subcutaneously bilaterally close to the two brachial LNs (50 μL each side) with one of the formulations shown in Table 1 (n=5 mice per group). On day 1 (˜18 hours post injection) the mice were euthanized. The inflamed brachial LNs as well as the distal non-inflamed inguinal LNs were harvested from each mouse individually. Single cell suspensions were generated by homogenizing the LNs on a 70μ cell strainer using 3 mL syringe plungers, followed by wash with FACS staining buffer (BD Biosciences, Cat #554657). The cell pellet was re-suspended in 100 μL of FACS buffer for staining on a 96-well U-bottom tissue culture plate (Corning). Each sample was stained using the flow cytometry panel (see Table 2 below) of antibodies followed by acquisition and analysis on BD LSRII Fortessa. For positive controls, 1 drop of ultracomp beads (Invitrogen, Cat #01-2222-42) were stained with 1 μL of the respective antibodies.

[2] = test system: B16F10-OVA tumors; assay: Study 3: prophylactic vaccination and B16F10-OVA tumor challenge; assay type: in vivo, C57BL/6 mice; conditions: SC pre-treatment Day -14 to Day -4, tumor challenge Day 0; Ovalbumin 100 ug QWx2, Compound I-263a 15 mg/kg BIWx2, poly (I:C) 50 ug BIWx2; FIG. 5A/5B
Description: The goal of this study was to evaluate the prophylactic effects of OVA+Compound 1-263a vaccination in mice challenged with tumors expressing the OVA antigen (B16F10-OVA). The B16F10-OVA cell line was generated in-house by stable integration of the chicken ovalbumin gene into the Rosa26 locus. Eight to ten-week-old female C57BL/6 mice (Jackson Labs, Bar Harbor, Me.) were injected with one of the formulations shown in Table 5 subcutaneously (SC) near the nape. All mice were subsequently challenged on Day 0 with 0.3e6 B16F10-OVA tumor cells/mouse subcutaneously (n=16 mice/group, except group 5 (ovalbumin+Compound 1-263a) for which n=15). Tumor growth was measured every 2-3 days using digital calipers and tumor volume was calculated as: L×W×(W/2).

[3] = test system: dendritic cells (CD11c+ cells); assay: Study 1: activation of dendritic cells in lymph nodes after subcutaneous injection (flow cytometry); assay type: in vivo, Balb/c mice; conditions: ~18 hours post subcutaneous injection near brachial LNs, relative to vehicle treated mice
Description: as §1, §2

Molecule	early lymphocyte activation marker CD69 on T cells in the brachial LNs ([1]; FIG. 2a)	early lymphocyte activation marker CD69 on NK cells in the brachial LNs ([1]; FIG. 2b)	growth of B16-F10 tumors expressing OVA (tumor protection) [2]	expression of marker CD86 on CD11c+ cells in the distal inguinal LNs ([3]; 7.5 mg/kg, FIG. 1b)	expression of marker CD40 on CD11c+ cells in the brachial LNs ([3]; Compound I-263a 7.5 mg/kg, CpG 2.5 mg/kg, FIG. 1a)	expression of marker CD86 on CD11c+ cells in the brachial LNs ([3]; Compound I-263a 7.5 mg/kg, CpG 2.5 mg/kg, FIG. 1b)
Cc1sc(C(=O)c2cncnc2N[C@@H]2C[C@H](COS(N)(=O)=O)[C@@H](O)C2)cc1[C@@H]1NCCc2ccc(Cl)cc21 [Compound I-263a, [(1R,2S,4R)-4-{[5-({4-[(1R)-7-chloro-1,2,3,4-tetrahydroisoquinolin-1-yl]-5-methyl-2-thienyl}carbonyl)pyrimidin-4-yl]amino}-2-hydroxycyclopentyl]methyl sulfamate]	changes in the early lymphocyte activation marker CD69 were observed	changes in the early lymphocyte activation marker CD69 were observed	did not confer tumor protection	but not in the distal inguinal LNs	increases	increases
B1			did not confer tumor protection			
